Drawing on PubChem BioAssay (NCI), this text covers TGI for nine compounds.

Among the test systems are NCI-H23 lung; CCRF-CEM leukemia; UO-31 renal; SK-MEL-28 melanoma; UACC-62 melanoma; NCI/ADR-RES ovarian; HCT-15 colon; DU-145 prostate; HCT-116 colon; SNB-75 CNS; UACC-257 melanoma; HCC-2998 colon; IGROV1 ovarian; NCI-H226 lung; MOLT-4 leukemia; A498 renal; SK-MEL-5 melanoma; RXF 393 renal.
Common to all, as to assay: NCI anticancer screen, dose series, 48 h

Each structure is given as a SMILES string.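 Briefly, cells in 96-well plates were exposed to five compound concentrations for 48 h, and endpoints were estimated by linear interpolation. The concentration for full growth arrest is given as TGI.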 Where only a bound is given, the exact number is not on record here.

Consider `O=c1c2cc(S(=O)(=O)Nc3c(Cl)cccc3Cl)ccc2ncn1NS(=O)(=O)c1ccc2ccccc2c1`, for which the TGI with NCI-H23 lung, in the experiment on CCRF-CEM leukemia, in the experiment with UO-31 renal, with SK-MEL-28 melanoma, in the experiment on UACC-62 melanoma and with NCI/ADR-RES ovarian was above 62.5 µM in each case. For the same compound, the TGI in the experiment with HCT-15 colon, in the experiment on DU-145 prostate, with HCT-116 colon, in the experiment with SNB-75 CNS, in the experiment with UACC-257 melanoma and with HCC-2998 colon was above 62.5 µM throughout. Besides, the figures for the TGI with IGROV1 ovarian, in the experiment on NCI-H226 lung and with MOLT-4 leukemia were above 62.5 µM, 35.1 µM and above 62.5 µM, respectively.
`O=C1C=C2CC[C@H]3[C@@H]4CC[C@H](OC(=O)c5cccc6cc7ccccc7nc56)[C@H]4CC[C@@H]3[C@H]2CC1`: the TGI in the experiment with NCI-H23 lung, with CCRF-CEM leukemia, with A498 renal, in the experiment on UO-31 renal, in the experiment on SK-MEL-28 melanoma and in the experiment with UACC-62 melanoma was above 100 µM throughout. In addition, the TGI in the experiment on NCI/ADR-RES ovarian, with HCT-15 colon, in the experiment on DU-145 prostate, in the experiment with HCT-116 colon, in the experiment with SNB-75 CNS and in the experiment with UACC-257 melanoma was above 100 µM throughout. Moreover, the TGI in the experiment on IGROV1 ovarian, in the experiment on SK-MEL-5 melanoma, in the experiment on NCI-H226 lung and in the experiment with MOLT-4 leukemia was above 100 µM in each case.
For the compound `CCO/C=C(\C(=O)OC)S(=O)(=O)c1ccc(C)cc1`, the TGI in the experiment with NCI-H23 lung, with CCRF-CEM leukemia, in the experiment on UO-31 renal, in the experiment on SK-MEL-28 melanoma, in the experiment on UACC-62 melanoma and in the experiment with NCI/ADR-RES ovarian was above 100 µM throughout. The TGI with HCT-15 colon, in the experiment with DU-145 prostate, in the experiment with HCT-116 colon, in the experiment with SNB-75 CNS, in the experiment on UACC-257 melanoma and in the experiment with HCC-2998 colon was above 100 µM each time. Moreover, the TGI in the experiment on IGROV1 ovarian, with SK-MEL-5 melanoma, with NCI-H226 lung, with RXF 393 renal and with MOLT-4 leukemia was above 100 µM each time.
Consider `O=[N+]([O-])c1ccc(C(=Nc2ccccc2)SSC(=Nc2ccccc2)c2ccc([N+](=O)[O-])o2)o1`, for which the TGI with NCI-H23 lung worked out at 3.38 µM; in the experiment on UO-31 renal, 2.82 µM; in the experiment with SK-MEL-28 melanoma, 7.04 µM; in the experiment on UACC-62 melanoma, 3.4 µM; with NCI/ADR-RES ovarian it was 7.43 µM; in the experiment on HCT-15 colon, 2.2 µM. In addition, the TGI is 3.6 µM in the experiment with DU-145 prostate; 2.95 µM in the experiment with HCT-116 colon; 3.45 µM with SNB-75 CNS; above 21.9 µM in the experiment on UACC-257 melanoma; 3.41 µM in the experiment with HCC-2998 colon; 3.51 µM in the experiment with IGROV1 ovarian. Moreover, the TGI in the experiment on SK-MEL-5 melanoma is 20.9 µM; in the experiment on NCI-H226 lung, 56.4 µM; in the experiment with RXF 393 renal, 4.55 µM; in the experiment with MOLT-4 leukemia, above 24 µM.
`C=C(CN)CO[Si](C)(C)C(C)(C)C`: the TGI in the experiment with NCI-H23 lung, in the experiment with CCRF-CEM leukemia, in the experiment with A498 renal, in the experiment with UO-31 renal, with SK-MEL-28 melanoma and in the experiment with UACC-62 melanoma was above 100 µM each time. Besides, the TGI with NCI/ADR-RES ovarian, in the experiment with HCT-15 colon, in the experiment with DU-145 prostate, in the experiment with HCT-116 colon, in the experiment with SNB-75 CNS and with UACC-257 melanoma was above 100 µM throughout. Also, the TGI in the experiment on HCC-2998 colon, in the experiment with IGROV1 ovarian, in the experiment on SK-MEL-5 melanoma, with NCI-H226 lung and in the experiment on MOLT-4 leukemia was above 100 µM each time.
On to `N#CCc1nc(-c2cc3c(ccc4ccccc43)oc2=O)cs1`, for which the TGI in the experiment on CCRF-CEM leukemia is above 100 µM; in the experiment on UO-31 renal, above 100 µM; in the experiment with SK-MEL-28 melanoma, above 100 µM; in the experiment with UACC-62 melanoma, 68.4 µM; in the experiment with NCI/ADR-RES ovarian, 70.2 µM; with HCT-15 colon it was above 100 µM. Moreover, the TGI was above 100 µM with DU-145 prostate; above 100 µM with HCT-116 colon; 20.4 µM in the experiment on SNB-75 CNS; 75.7 µM in the experiment with UACC-257 melanoma; above 100 µM in the experiment on HCC-2998 colon; 43.7 µM in the experiment with IGROV1 ovarian. The TGI in the experiment with SK-MEL-5 melanoma was above 100 µM; in the experiment on NCI-H226 lung, 81.2 µM; in the experiment on RXF 393 renal it was 74 µM; in the experiment on MOLT-4 leukemia it was above 100 µM.
On to `Cn1c(=O)cc(N2CCCC2)[nH]c1=O`, for which the TGI in the experiment with NCI-H23 lung, in the experiment with CCRF-CEM leukemia, with SK-MEL-28 melanoma, in the experiment on NCI/ADR-RES ovarian, in the experiment with HCT-15 colon and in the experiment on DU-145 prostate was above 100 µM each time. Besides, the TGI in the experiment with HCT-116 colon, with SNB-75 CNS, with UACC-257 melanoma, in the experiment on HCC-2998 colon, with IGROV1 ovarian and with SK-MEL-5 melanoma was above 100 µM throughout. Moreover, the TGI with NCI-H226 lung and with MOLT-4 leukemia was above 100 µM each time.
For `CCc1ccccc1NC(=O)C(=O)CC(=O)c1sc(Nc2ccccc2Cl)nc1C`, the TGI with NCI-H23 lung is above 100 µM; in the experiment with CCRF-CEM leukemia, 58.9 µM; with UO-31 renal it was above 100 µM; with SK-MEL-28 melanoma it was above 100 µM; with UACC-62 melanoma, above 100 µM; with NCI/ADR-RES ovarian, above 100 µM. The TGI in the experiment on HCT-15 colon was 92 µM; with DU-145 prostate, above 100 µM; in the experiment with HCT-116 colon, 50.4 µM; with UACC-257 melanoma it was above 100 µM; in the experiment on HCC-2998 colon it was above 100 µM; in the experiment on IGROV1 ovarian it was above 100 µM. In addition, the TGI in the experiment on SK-MEL-5 melanoma was 52.4 µM; in the experiment on NCI-H226 lung, above 100 µM; with RXF 393 renal it was 74.2 µM; with MOLT-4 leukemia, 49.8 µM.
As to `O=C(OCc1ccccc1)N1CCCc2c(n(S(=O)(=O)c3ccccc3)c3ccccc23)C1`, the TGI in the experiment on NCI-H23 lung, with A498 renal, with UO-31 renal, with SK-MEL-28 melanoma, in the experiment on UACC-62 melanoma and with NCI/ADR-RES ovarian was above 100 µM each time. Further, the TGI in the experiment with HCT-15 colon, with DU-145 prostate, in the experiment on HCT-116 colon, in the experiment on UACC-257 melanoma, in the experiment with IGROV1 ovarian and with SK-MEL-5 melanoma was above 100 µM in each case. Besides, the TGI in the experiment with NCI-H226 lung, in the experiment with RXF 393 renal and with MOLT-4 leukemia was above 100 µM each time.
